{"source": "patent US20060293187A1", "about": "“Herbicidal mixtures based on 3-phenyluracils” (BASF Aktiengesellschaft, priority 2003, published 2006)", "type_in_all_cases": "in vivo", "settings_in_all_cases": "21 days, 0 = no damage, 100 = complete destruction", "key": {"Alopecurus myosuroides": {"test_system": "Alopecurus myosuroides", "test": "Greenhouse experiment, herbicidal activity, post-emergence method", "from_the_text": "(§1) For the post-emergence treatment, the test plants were first grown to a height of 3 to 20 cm, depending on the plant habit, and only then treated. Here, the herbicidal compositions were suspended or emulsified in water as distribution medium and sprayed using finely distributing nozzles.\n(§2) The respective components I and B and/or C were formulated as 10% by weight strength emulsion concentrate and introduced to the spray liquor with the amount of solvent system used for applying the active compound. In the examples, the solvent used was water.\n(§3) The test period extended over 21 days. During this time, the plants were tended, and their response to the treatments with active compound was evaluated.\n(§4) The evaluation for the damage caused by the chemical compositions was carried out using a scale from 0 to 100%, compared to the untreated control plants. Here, 0 means no damage and 100 means complete destruction of the plants.\n(§5) In the examples below, the value E which is to be expected if the activity of the individual compounds is just additive was calculated using the method of S. R. Colby (1967) “Calculating synergistic and antagonistic responses of herbicide combinations”, Weeds 15, p. 22 ff. E=X+Y−(X·Y/100) where\n(§6) X=effect in percent using active compound I at an application rate a;\n(§7) Y=effect in percent using active compound B at an application rate b;\n(§8) E=expected effect (in %) of I+B at application rates a+b.\n(§9) If the value […] in this manner is higher than the value E calculated according to Colby, a synergistic effect is present."}, "Amaranthus retroflexus": {"test_system": "Amaranthus retroflexus", "test": "Greenhouse experiment, herbicidal activity, pre-emergence method", "experimental": "as §2, §3, §4, §5, §6, §7, §8, §9"}, "Echinocloa crus-galli": {"test_system": "Echinocloa crus-galli", "test": "Greenhouse experiment, herbicidal activity, post-emergence method", "from_the_text": "as §1, §2, §3, §4, §5, §6, §7, §8, §9"}, "[1]": {"settings": "application rate 1.95 g/ha of each active compound applied (mixture 1.95 + 1.95 g/ha)"}, "[2]": {"settings": "application rate 0.98 g/ha of each active compound applied (mixture 0.98 + 0.98 g/ha)"}}}
{"molecule": "4-Hydroxy-3-{[2-methoxyethoxy)methyl-6-(trifluormethyl)-3-pyridinyl]carbonyl}bicyclo[3.2.1]oct-3-en-2-one [B.2]", "values": [{"measurement": "Herbicidal activity against Alopecurus myosuroides, found", "setting": "Alopecurus myosuroides; [1]", "value": 0, "unit": "%"}, {"measurement": "Herbicidal activity against Alopecurus myosuroides, found", "setting": "Alopecurus myosuroides; application rate 3.91 g/ha of each active compound applied (mixture 3.91 + 3.91 g/ha)", "value": 0, "unit": "%"}]}
{"molecule": "Cc1nc(C(F)(F)F)ccc1C(=O)C1=C(O)C2CCC(C2)C1=O", "note": "(stereo not drawn) [B.1, 4-Hydroxy-3-{[2-methyl-6-(triflurmethyl)-3-pyridinyl]carbonyl}ci-cyclo[3.2.1]oct-3-en-2-one]", "values": [{"measurement": "Herbicidal activity against Amaranthus retroflexus, found", "setting": "Amaranthus retroflexus; [2]", "value": 0, "unit": "%"}, {"measurement": "Herbicidal activity against Amaranthus retroflexus, found", "setting": "Amaranthus retroflexus; [1]", "value": 20, "unit": "%"}, {"measurement": "Herbicidal activity against Echinocloa crus-galli, found", "setting": "Echinocloa crus-galli; [2]", "value": 30, "unit": "%"}, {"measurement": "Herbicidal activity against Echinocloa crus-galli, found", "setting": "Echinocloa crus-galli; [1]", "value": 60, "unit": "%"}]}
